Assays:
[1] = test system: Aphis gossypii; assay: Test Example 1: spray test against Aphis gossypii on cucumber seedling; assay type: in vivo; conditions: 144 h, 500 ppm active ingredient, formulation of Formulation Example 5 diluted with water, 20 ml sprayed on cucumber seedling, six days after spraying
Description: On the other hand, about 30 Aphis gossypii were incubated on a cucumber seeding (the first true leaf stage) planted in a plastic cup, and leaving it for a day. 20 ml of each of the above test spray solutions was sprayed on this seeding. Six days after spraying, the number of the surviving Aphis gossypii parasitized on the leaves of the cucumber was examined, and a control value was calculated according to the following equation: Control value(%)={1−(Cb×Tai)/(Cai×Tb))×100 wherein symbols represent as follows: Cb: the number of insects in a non-treated section before treatment, Cai: the number of insects in a non-treated section in observation, Tb: the number of insects in a treated-section before treatment, Tai: the number of insects in a treated-section in observation.

[2] = test system: Bemisia tabaci; assay: Test Example 2: spray test against Bemisia tabaci instar larvae on tomato seedling; assay type: in vivo; conditions: 168 h, 500 ppm active ingredient, formulation of Formulation Example 5 diluted with water, 10 ml/cup sprayed on tomato seedling, greenhouse at 25° C., after 7 days
Description: On the other hand, Bemisia tabaci adult was released on a tomato seeding (the third true leaf stage) planted in a polyethylene cup, and made to lay eggs for about 24 hours. The tomato seedling was kept in a greenhouse for 8 days. When instar larvae hatched from the eggs, the above test spray solution was sprayed in the amount of 10 ml/cup. The cup was kept in a greenhouse at 25° C. After the keeping for 7 days, the number of surviving instar larvae on the tomato leaves was examined, and a control value was calculated according to the following equation: Control value(%)={1−(Cb×Tai)/(Cai×Tb))×100 wherein symbols represent as follows: Cb: the number of pests in a non-treated section before treatment, Cai: the number of pests in a non-treated section in observation, Tb: the number of pests in a treated-section before treatment, Tai: the number of pests in a treated-section in observation.

| SMILES | pest or weed control at 500 ppm [1] [%] | pest or weed control at 500 ppm [2] [%] |
| --- | --- | --- |
| CCSc1cncnc1-c1nc2cc(C(F)(F)F)cnc2n1C [Compound 4] | ≥ 90 | ≥ 90 |
| CCSc1cncnc1-c1nc2cc(C(F)(F)F)ccc2n1C [Compound 7, 2-(5-ethylthiopyrimidin-4-yl)-1-methyl-5-trifluoromethyl-1H-benzimidazole] | ≥ 90 | ≥ 90 |
| CCS(=O)(=O)c1cncnc1-c1nc2cc(C(F)(F)F)cnc2n1C [Compound 6] | ≥ 90 | ≥ 90 |
| CCc1cncnc1-c1nc2cc(C(F)(F)F)ccc2o1 [Compound 10] | ≥ 90 | ≥ 90 |
| CC[S+]([O-])c1cncnc1-c1nc2cc(C(F)(F)F)ccc2n1C (stereo not shown) [Compound 8] | ≥ 90 | ≥ 90 |
| CCc1cncnc1-c1nc2cc(C(F)(F)F)cnc2o1 [Compound 15] | ≥ 90 | ≥ 90 |
| Cn1c(-c2ccncn2)nc2cc(C(F)(F)F)ccc21 [Compound 2] | ≥ 90 | ≥ 90 |
| CCS(=O)(=O)c1cncnc1-c1nc2cc(C(F)(F)F)ccc2n1C [Compound 9] | ≥ 90 | ≥ 90 |
| CC[S+]([O-])c1cncnc1-c1nc2cc(C(F)(F)F)cnc2n1C (stereo not shown) [Compound 5] | ≥ 90 | ≥ 90 |
| Cn1c(-c2ncncc2OCC(F)(F)F)nc2cc(C(F)(F)F)cnc21 [Compound 3] | ≥ 90 | ≥ 90 |
| Cn1c(-c2ncncc2Cl)nc2cc(C(F)(F)F)cnc21 [Compound 13] | ≥ 90 | ≥ 90 |

— patent US9089136B2, “Pyrimidine compound and use thereof for pest control” (Sumitomo Chemical Company, Limited, priority 2010, dated 2015)
